# Source: patent publication US9617310B2 (priority 2013, dated 2017)
# How the values were obtained:
# [1] = tested on: genotype 1a (H77) wild-type transient HCV replicon in Huh-7-derived cells; assay: Transient-transfected HCV replicon, genotype 1a wild type; type: cell-based; conditions: Hepatitis C virus; transient-transfected replicon genotype 1a wild type, 72 h; read-out: EC50 1A WT
# [2] = tested on: genotype 1b stable HCV replicon (Con1) in Huh-7-derived cells; assay: Stable subgenomic HCV replicon, genotype 1b, Renilla luciferase; type: cell-based; conditions: Hepatitis C virus, stable replicon genotype 1b, 72 h, read-out: EC50 1B RLUC
# How it was run: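 Replicons carry hRLuc-neo, EMCV IRES and NS3-NS5B with adaptive mutations: 1a H77 P1496L/S2204I, 1b Con1 E1202G/T1280I/K1846T, 4a ED43 Q1691R/S2204I. EC50 came from non-linear regression versus DMSO and a triple-inhibitor full-inhibition control.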
# [3] = tested on: genotype 1a stable HCV replicon (H77) in Huh-7-derived cells; assay: Stable subgenomic HCV replicon, genotype 1a, Renilla luciferase; type: cell-based; conditions: Hepatitis C virus, stable replicon genotype 1a, 72 h, read-out: EC50 1A RLUC
# Protocol: Antiviral potency (EC50) was determined in both stable subgenomic HCV replicon cell lines and transient-transfected HCV replicon cells. The term half maximal effective concentration (EC50) refers to the concentration of a drug which induces a response halfway between the baseline and maximum after the exposure time specified below.
# Stable subgenomic HCV replicons for genotype 1a, 1b, 2a, 3a, and 4a were established in Huh-7-derived cells as described by Lohmann et al (Lohmann V, Korner F, Koch J, et al Replication of subgenomic hepatitis C virus RNAs in a hepatoma cell line. Science 1999; 285:119-3). Each stable cell line contains a bicistronic HCV replicon that encodes a humanized Renilla luciferase (hRLuc) reporter gene fused to a selectable neomycin-resistance gene, followed by an EMCV IRES and the NS3-NS5B coding region of HCV. […] Luciferase activity was measured as a marker for intracellular HCV replication levels.
# The genotype 1a stable replicon was derived from the H77 HCV strain and contained adaptive mutations P1496L and S2204I. The genotype 1b stable replicon was derived from the Con1 HCV strain and contained adaptive mutations E1202G, T1280I, and K1846T. […] The genotype 3a stable replicon was derived from the S52 HCV strain and contained adaptive mutations P1121 L, A1198T and S2210I (equivalent to S2204I in genotype 1). The genotype 4a stable replicon was derived from the ED43 HCV strain and contained adaptive mutations Q1691R and S2204I. All replicon cell lines were propagated in Huh-7-derived cells and maintained in Dulbecco's modified Eagle's Medium (DMEM) supplemented with 10% fetal bovine serum (FBS) and 0.5 mg/ml G418.
# To perform EC50 assays, cells from each HCV replicon were dispensed into 384-well plates. Compounds were dissolved in DMSO at a concentration of 10 mM and diluted in DMSO using an automated pipetting instrument. Three-fold serially diluted compounds were directly added to the cells using an automated instrument. DMSO was used as a negative (solvent; no inhibition) control, and a combination of three HCV inhibitors including a protease inhibitor; an NS5A inhibitor and a nucleoside inhibitor was used at concentrations >100×EC50 as a positive control (100% inhibition). Seventy-two hours later, cells were lysed and Renilla luciferase activity were quantified as recommended by the manufacturer (Promega-Madison, Wis.). Non-linear regression was performed to calculate […], values.
# [4] = tested on: NS3/4a protease inhibitor resistant variant R155K in genotype 1a transient HCV replicon; assay: Transient-transfected HCV replicon, genotype 1a R155K; type: cell-based; conditions: Hepatitis C virus, 72 h, read-out: EC50 1A R155K
# [5] = biological target: T1, NS3 genotype 3a protease (UniProt Q81258); assay: Ki determination, NS3 protease genotype 3a (fluorogenic depsipeptide substrate); type: biochemical, hepatitis C virus; conditions: NS3 protease domain genotype 3a, NS4A peptide
# T1 construct: Purified NS3 protease domain (amino acids 1-181) of the genotype 1b and 3a virus were generated as above; fused on or other part: N-terminal hexahistidine tag with an rTEV protease cleavage site (vector p28-N6H-Tev-NS3(181)3)
# T1 sequence (Q81258 1033-1663): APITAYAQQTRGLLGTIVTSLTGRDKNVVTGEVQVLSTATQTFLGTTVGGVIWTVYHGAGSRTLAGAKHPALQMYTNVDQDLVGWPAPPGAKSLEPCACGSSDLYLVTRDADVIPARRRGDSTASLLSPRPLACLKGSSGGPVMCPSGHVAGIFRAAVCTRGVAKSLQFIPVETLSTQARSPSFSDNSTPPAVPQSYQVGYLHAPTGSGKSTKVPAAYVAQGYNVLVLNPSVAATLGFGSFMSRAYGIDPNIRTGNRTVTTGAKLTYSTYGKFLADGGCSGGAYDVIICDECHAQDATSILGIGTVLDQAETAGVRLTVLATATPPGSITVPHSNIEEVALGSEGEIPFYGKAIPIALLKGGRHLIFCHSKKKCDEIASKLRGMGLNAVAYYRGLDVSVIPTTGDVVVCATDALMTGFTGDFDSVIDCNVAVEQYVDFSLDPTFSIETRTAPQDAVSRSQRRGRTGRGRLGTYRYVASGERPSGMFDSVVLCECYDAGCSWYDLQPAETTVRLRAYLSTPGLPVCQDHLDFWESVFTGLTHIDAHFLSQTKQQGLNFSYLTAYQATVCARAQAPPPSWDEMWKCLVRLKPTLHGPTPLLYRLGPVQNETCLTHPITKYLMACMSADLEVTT
# Text: Ki Determination for Genotypes 1b and 3a NS3 Protease.
# Purified NS3 protease domain (amino acids 1-181) of the genotype 1b and 3a virus were generated as above. The internally quenched fluorogenic depsipeptide substrate Ac-DED(Edans)-EEAbuψ[COO]ASK(Dabcyl)-NH2 and a synthetic peptide containing the hydrophobic core residues of the NS4A protein cofactor ([…]; NS4A peptide) were obtained from Anaspec, Inc. (San Jose, Calif.). Other chemicals and biochemicals were of reagent grade or better and were purchased from standard suppliers.
# Reactions were run at room temperature in buffer consisting of 50 mM HEPES, 40% glycerol, 0.05% Triton X-100, 10 mM DTT, and 10% DMSO. The final assay solutions contained 50 pM NS3 genotype 1b protease or 200 pM genotype 3a protease, 20 μM NS4A peptide, and 4 μM substrate (genotype 1b) or 2 μM substrate (genotype 3a). Inhibitor concentrations varied from 100 nM to 5 pM in 3-fold dilutions, and no-inhibitor controls were included.
# Compound dilutions were made in DMSO at 20× final concentration. Reaction mixtures were prepared in 96-well assay plates. A solution of enzyme and NS4A peptide in assay buffer (25 μL volume with both reagents at 4× final concentration) was mixed with 45 μL assay buffer and 5 μL of either inhibitor or DMSO, and pre-incubated at room temperature for 1 hour. The reaction was started by addition of 25 μL substrate solution at 4× final concentration. Plates were mixed vigorously for 5-10 seconds and reactions were allowed to proceed for 90 minutes. Fluorescence was measured every 30 s between 90 and 120 minutes reaction time using a Tecan InfiniTe M1000 or PerkinElmer Envision multimode plate reader with an excitation wavelength of 340 nm and an emission wavelength of 490 nm.
# Rates were calculated from the progress curves at steady state, in the time frame of 90-120 minutes after addition of substrate. To determine the Ki, rates were plotted as a function of inhibitor concentration, and the data were fit with equation 1 (Morrison, J. F., Biochimica et Biophysica Acta 1969, 185, 269-286) to calculate Ki^app using GraphPad Prism 5. Active fraction of enzyme was determined by active site titration with known potent inhibitors. Ki was calculated from Ki^app/(1+[[S]/Km]).
Compound,EC50 [1] [nM],EC50 [2] [nM],EC50 [3] [nM],EC50 [4] [nM],Ki [5] [nM]
"COc1ccc2nc3c(nc2c1)O[C@@H]1C[C@@H](C(=O)N[C@]2(C(=O)NS(=O)(=O)C4(C)CC4)C[C@H]2C(F)F)N(C1)C(=O)[C@H](C(C)(C)C)NC(=O)O[C@@H]1[C@H]2CC[C@H](C2)[C@H]1CCCCC3 [Example 5, (1R,4S,4aR,8S,11S,13R,25aR)-8-tert-butyl-N-[(1R,2R)-2-(difluoromethyl)-1-{[(1-methylcyclopropyl)sulfonyl]carbamoyl}cyclopropyl]-17-methoxy-6,9-dioxo-2,3,4,4a,6,7,8,9,12,13,21,22,23,24,25,25a-hexadecahydro-1H,11H-1, 4:10,13-dimethanoquinoxalino[2,3-k][1,10,3,6]benzodioxadiazacyclononadecine-11-carboxamide]",4.2,3.5,5,35,0.27
"COc1ccc2nc3c(nc2c1)O[C@@H]1C[C@@H](C(=O)N[C@]2(C(=O)NS(=O)(=O)C4CC4)C[C@H]2C(F)F)N(C1)C(=O)[C@H](C(C)(C)C)NC(=O)O[C@H]1[C@H](CCCCC3)C[C@H]2C[C@H]21 [Example 7, (1aR,1bS,5S,8S,10R,22aR,23aR)-5-tert-butyl-N-[(1R,2R)-1-[(cyclopropylsulfonyl)carbamoyl]-2-(difluoromethyl)cyclopropyl]-14-methoxy-3,6-dioxo-1a,1b,3,4,5,6,9,10,18,19,20,21,22,22a,23,23a-hexadecahydro-1H,8H-7,10-methanocyclopropa[3′,40]cyclopenta[1′,2′:18,19][1,10,3,6]dioxadiazacyclononadecino[11,12-b]quinoxaline-8-carboxamide]",72,82,95,180,9.5
"COc1ccc2nc3c(nc2c1)O[C@@H]1C[C@@H](C(=O)N[C@]2(C(=O)NS(=O)(=O)C4(C)CC4)C[C@H]2C(F)F)N(C1)C(=O)[C@H](C(C)(C)C)NC(=O)O[C@H]1[C@H](CCCCC3)C[C@H]2C[C@H]21 [Example 8, (1aR,1bS,5S,8S,10R,22aR,23aR)-5-tert-butyl-N-[(1R,2R)-2-(difluoromethyl)-1-{[(1-methylcyclopropyl)sulfonyl]carbamoyl}cyclopropyl]-14-methoxy-3,6-dioxo-1a,1b,3,4,5,6,9,10,18,19,20,21,22,22a, 23,23a-hexadecahydro-1H,8H-7,10-methanocyclopropa[3′,4′]cyclopenta [1′,2′:18,19][1,10,3,6]dioxadiazacyclononadecino[11,12-b]quinoxaline-8-carboxamide]",72,55,76,148,8.5
"COc1ccc2nc3c(nc2c1)O[C@@H]1C[C@@H](C(=O)N[C@]2(C(=O)NS(=O)(=O)C4(C)CC4)C[C@H]2C(F)F)N(C1)C(=O)[C@H](C(C)(C)C)NC(=O)O[C@@H]1C[C@@H]2C[C@@H]2[C@H]1CCCCC3(F)F [Example 10, (1aS,2aR,6S,9S,11R,23aR,23bS)-6-tert-butyl-N-[(1R,2R)-2-(difluoromethyl)-1-{[(1-methylcyclopropyl)sulfonyl]carbamoyl}cyclopropyl]-19,19-difluoro-15-methoxy-4,7-dioxo-1a,2,2a,4,5,6,7,10,11,19,20,21,22,23,23a,23b-hexadecahydro-1H,9H-8,11-methanocyclopropa [4′,5′]cyclopenta[1′,2′:18,19][1,10,3,6]dioxadiazacyclononadecino[11,12-b]quinoxaline-9-carboxamide]",1.4,1.4,1.6,1.3,0.02
"CC(C)(C)[C@@H]1NC(=O)O[C@@H]2C[C@@H]3C[C@@H]3[C@H]2CCCCCc2nc3ccc(F)cc3nc2O[C@@H]2C[C@@H](C(=O)N[C@]3(C(=O)NS(=O)(=O)C4(C)CC4)C[C@H]3C(F)F)N(C2)C1=O [Example 11, (1aS,2aR,6S,9S,11R,23aR,23bS)-6-tert-butyl-N-[(1R,2R)-2-(difluoromethyl)-1-{[(1-methylcyclopropyl)sulfonyl]carbamoyl}cyclopropyl]-15-fluoro-4,7-dioxo-1a,2,2a,4,5,6,7,10,11,19,20,21,22,23,23a,23b-hexadecahydro-1H,9H-8,11-methanocyclopropa[4′,5′]cyclopenta[1′,2′:18,19][1,10,3,6]dioxadiazacyclononadecino[11,12-b]quinoxaline-9-carboxamide]",1.4,1.3,1.4,1.9,0.09
"CC(C)(C)[C@@H]1NC(=O)O[C@@H]2C[C@@H]3C[C@@H]3[C@H]2CCCCCc2nc3ccc(F)cc3nc2O[C@@H]2C[C@@H](C(=O)N[C@]3(C(=O)NS(=O)(=O)C4CC4)C[C@H]3C(F)F)N(C2)C1=O [Example 12, (1aS,2aR,6S,9S,11R,23aR,23bS)-6-tert-butyl-N-[(1R,2R)-1-[(cyclopropylsulfonyl)carbamoyl]-2-(difluoromethyl)cyclopropyl]-15-fluoro-4,7-dioxo-1a,2,2a,4,5,6,7,10,11,19,20,21,22,23,23a,23b-hexadecahydro-1H,9H-8,11-methanocyclopropa[4′,5′]cyclopenta[1′,2′:18,19][1,10,3,6]dioxadiazacyclononadecino[11,12-b]quinoxaline-9-carboxamide]",0.8,1.3,1.7,1.9,0.09
